Experimental data: patent EP1247803A2, “Indolinone compounds suitable for modulation of protein kinases” (Sugen, Inc., priority 1996, dated 1998)

Key:
MET = MET biochemical kinase assay; set-up: species or system human; concentration or dose not given beside the values
Procedure, shortened: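 Lysate-derived MET, or chimeric receptors, is immobilised on plates through an antibody to the human MET cytoplasmic region. Compounds are added along with kinase buffer supplying ATP and divalent metal ions, and receptor autophosphorylation is quantified by anti-phosphotyrosine ELISA.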

PDGF-R = PDGF-R (Homo sapiens, UniProt P09619); assay: PDGF-R ELISA; format: cell-based
Chain of PDGF-R (P09619 33-1106, species assumed): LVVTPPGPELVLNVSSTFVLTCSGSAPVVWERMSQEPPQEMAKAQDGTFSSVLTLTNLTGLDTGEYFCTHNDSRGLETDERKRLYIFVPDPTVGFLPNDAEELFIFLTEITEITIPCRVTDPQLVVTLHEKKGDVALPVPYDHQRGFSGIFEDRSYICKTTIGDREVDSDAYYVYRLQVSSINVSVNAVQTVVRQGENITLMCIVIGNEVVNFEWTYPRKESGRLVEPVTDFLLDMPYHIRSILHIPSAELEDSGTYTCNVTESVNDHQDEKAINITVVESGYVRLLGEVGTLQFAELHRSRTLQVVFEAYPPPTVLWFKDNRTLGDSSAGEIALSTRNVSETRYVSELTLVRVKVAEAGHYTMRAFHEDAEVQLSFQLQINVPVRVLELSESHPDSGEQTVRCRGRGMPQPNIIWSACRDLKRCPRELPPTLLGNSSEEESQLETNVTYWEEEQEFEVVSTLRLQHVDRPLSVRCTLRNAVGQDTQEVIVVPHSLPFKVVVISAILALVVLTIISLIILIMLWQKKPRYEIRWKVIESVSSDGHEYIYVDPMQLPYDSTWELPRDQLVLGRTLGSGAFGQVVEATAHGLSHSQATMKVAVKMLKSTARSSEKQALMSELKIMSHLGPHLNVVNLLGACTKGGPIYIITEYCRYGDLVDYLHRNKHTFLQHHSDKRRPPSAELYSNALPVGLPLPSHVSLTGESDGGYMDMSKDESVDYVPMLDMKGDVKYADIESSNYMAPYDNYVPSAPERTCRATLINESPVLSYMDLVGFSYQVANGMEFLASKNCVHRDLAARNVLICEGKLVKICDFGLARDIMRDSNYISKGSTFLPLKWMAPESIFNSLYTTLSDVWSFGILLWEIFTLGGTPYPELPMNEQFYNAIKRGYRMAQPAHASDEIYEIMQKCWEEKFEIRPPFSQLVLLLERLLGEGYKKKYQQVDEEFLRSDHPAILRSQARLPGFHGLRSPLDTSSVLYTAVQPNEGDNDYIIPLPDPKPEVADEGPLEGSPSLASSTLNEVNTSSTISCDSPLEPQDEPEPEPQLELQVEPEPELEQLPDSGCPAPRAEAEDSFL
Text: A PDGF-R ELISA is described in International Patent Publication No. WO 96/40116, published December 19, 1996 by Tang et al.

FLK-1 receptor = molecular target: T1, FLK-1 receptor (Mus musculus, UniProt P35918); assay: FLK-1 ELISA (kinase activity of the FLK-1 receptor in FLK-1/NIH3T3 cells, VEGF stimulated); format: cell-based; set-up: concentration or dose not given beside the values
T1 construct: expressed in transfected cells; host or cells: NIH3T3 C7#3
T1 sequence (P35918 20-1345): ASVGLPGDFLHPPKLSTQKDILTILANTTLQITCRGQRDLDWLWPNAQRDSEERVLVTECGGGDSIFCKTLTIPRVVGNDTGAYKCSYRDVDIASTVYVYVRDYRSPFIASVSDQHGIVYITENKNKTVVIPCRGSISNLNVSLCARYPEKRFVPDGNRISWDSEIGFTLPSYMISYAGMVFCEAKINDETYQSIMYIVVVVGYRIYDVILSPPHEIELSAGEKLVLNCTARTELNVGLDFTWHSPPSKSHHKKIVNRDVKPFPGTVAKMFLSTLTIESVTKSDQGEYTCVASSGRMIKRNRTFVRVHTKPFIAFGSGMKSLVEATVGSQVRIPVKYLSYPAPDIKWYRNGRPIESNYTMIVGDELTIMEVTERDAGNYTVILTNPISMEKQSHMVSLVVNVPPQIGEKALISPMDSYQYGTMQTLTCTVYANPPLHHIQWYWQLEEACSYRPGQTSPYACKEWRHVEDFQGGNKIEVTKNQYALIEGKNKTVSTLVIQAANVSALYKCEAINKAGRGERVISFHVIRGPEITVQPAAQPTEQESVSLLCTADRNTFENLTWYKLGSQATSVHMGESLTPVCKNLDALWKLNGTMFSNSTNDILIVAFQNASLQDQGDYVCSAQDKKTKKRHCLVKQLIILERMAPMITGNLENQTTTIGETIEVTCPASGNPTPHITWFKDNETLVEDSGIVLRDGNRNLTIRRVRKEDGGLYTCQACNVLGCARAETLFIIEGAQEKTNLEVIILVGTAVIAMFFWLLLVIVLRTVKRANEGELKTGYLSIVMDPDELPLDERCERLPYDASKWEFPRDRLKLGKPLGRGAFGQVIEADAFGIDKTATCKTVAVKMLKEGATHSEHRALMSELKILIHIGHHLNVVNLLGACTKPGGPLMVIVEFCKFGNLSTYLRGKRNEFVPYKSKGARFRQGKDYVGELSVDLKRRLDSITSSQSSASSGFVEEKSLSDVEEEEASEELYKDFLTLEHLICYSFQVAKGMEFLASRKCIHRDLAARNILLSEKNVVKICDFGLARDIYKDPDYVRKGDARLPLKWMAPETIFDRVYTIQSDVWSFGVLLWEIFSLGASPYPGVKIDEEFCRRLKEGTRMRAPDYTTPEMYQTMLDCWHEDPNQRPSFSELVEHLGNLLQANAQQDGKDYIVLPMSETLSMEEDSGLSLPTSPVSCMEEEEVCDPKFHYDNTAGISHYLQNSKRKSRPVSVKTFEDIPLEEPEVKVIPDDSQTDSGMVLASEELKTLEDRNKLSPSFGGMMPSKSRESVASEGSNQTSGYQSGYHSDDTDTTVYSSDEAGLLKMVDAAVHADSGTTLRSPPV
Procedure, shortened: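 An ELISA using affinity-purified rabbit anti-FLK-1 antiserum on anti-rabbit IgG-coated plates measured VEGF-stimulated FLK-1 kinase activity. NIH3T3 C7#3 cells carrying FLK-1 were serum-starved (0.1% FBS) overnight, then exposed to compound (final 1:200 dilution, 0.5% DMSO) for two hours at 37 °C.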

| Structure (SMILES) | Met Kinase % Inhibition (MET) [%] | PDGF Kinase %Inhibition (PDGF-R) [%] | Fik Kinase %Inhibition (FLK-1 receptor) [%] |
| --- | --- | --- | --- |
| Cc1cc(C=C2C(=O)Nc3ccc(S(=O)(=O)Nc4ccc(C(F)(F)F)cc4)cc32)cc(C(C)(C)C)c1O [10726/E04] | 85.5 | 12.6 | 8.1 |
| O=C1Nc2ccc(S(=O)(=O)Nc3ccc(C(F)(F)F)cc3)cc2C1=Cc1ccc(Br)o1 [10726/E05] | 71.0 | 4.3 | 8.1 |
| Cc1cn(C)cc1C=C1C(=O)Nc2ccc(S(=O)(=O)Nc3ccc(C(F)(F)F)cc3)cc21 [10726/E06] | -7.4 | 41.7 | 6.2 |
| O=C1Nc2ccc(S(=O)(=O)Nc3ccc(C(F)(F)F)cc3)cc2C1=Cc1cc(O)c2c(c1O)CCCC2 [10726/E07] | 84.0 | -12.1 | -40.0 |
| O=C1Nc2ccc(F)cc2C1=C1C(=O)Nc2ccc(S(=O)(=O)Nc3ccc(C(F)(F)F)cc3)cc21 [10726/E08] | 58.9 | 34.1 | 4.1 |
| O=C1Nc2ccccc2C1=C1C(=O)Nc2ccc(S(=O)(=O)Nc3ccc(C(F)(F)F)cc3)cc21 [10726/E09] | 50.3 | 34.7 | 9.9 |
| CCc1ccc(C=C2C(=O)Nc3ccc(S(=O)(=O)Nc4ccc(C(F)(F)F)cc4)cc32)s1 [10726/E10] | 41.5 | 37.9 | 16.5 |
| COc1ccc(C=C2C(=O)Nc3ccc(S(=O)(=O)Nc4ccc(C(F)(F)F)cc4)cc32)cc1 [10726/E11] | 34.5 | 30.3 | 16.2 |
| CCOC(=O)c1[nH]c(C=C2C(=O)Nc3ccc(S(=O)(=O)N4CCOCC4)cc32)c(C(=O)OC)c1C [10726/F03] | 54.1 | 5.6 | 8.3 |
| Cc1cc(C=C2C(=O)Nc3ccc(S(=O)(=O)N4CCOCC4)cc32)cc(C(C)(C)C)c1O [10726/F04] | 93.5 | 18.3 | 31.5 |
| O=C1Nc2ccc(S(=O)(=O)N3CCOCC3)cc2C1=Cc1ccc(Br)o1 [10726/F05] | 51.2 | -17.8 | 8.9 |
| Cc1cn(C)cc1C=C1C(=O)Nc2ccc(S(=O)(=O)N3CCOCC3)cc21 [10726/F06] | 16.2 | 17.0 | 17.7 |
| O=C1Nc2ccc(S(=O)(=O)N3CCOCC3)cc2C1=Cc1cc(O)c2c(c1O)CCCC2 [10726/F07] | 96.1 | -99.4 | 9.6 |
| O=C1Nc2ccc(F)cc2C1=C1C(=O)Nc2ccc(S(=O)(=O)N3CCOCC3)cc21 [10726/F08] | 67.3 | 28.4 | 15.3 |
| O=C1Nc2ccccc2C1=C1C(=O)Nc2ccc(S(=O)(=O)N3CCOCC3)cc21 [10726/F09] | 66.8 | -2.6 | 9.6 |
| CCc1ccc(C=C2C(=O)Nc3ccc(S(=O)(=O)N4CCOCC4)cc32)s1 [10726/F10] | 51.4 | 9.4 | 7.0 |
| COc1ccc(C=C2C(=O)Nc3ccc(S(=O)(=O)N4CCOCC4)cc32)cc1 [10726/F11] | 57.6 | 25.2 | 13.6 |
| CCOC(=O)c1[nH]c(C=C2C(=O)Nc3ccc(CCCl)cc32)c(C(=O)OC)c1C [10726/G03] | 26.8 | 4.3 | 11.3 |

| Structure (SMILES) | Met Kinase % Inhibition (MET) [%] | PDGF Kinase %Inhibition (PDGF-R) [%] | Fik Kinase %Inhibition (FLK-1 receptor) [%] |
| --- | --- | --- | --- |
| Cc1cc(C=C2C(=O)Nc3ccc(CCCl)cc32)cc(C(C)(C)C)c1O [10726/G04] | 72.8 | 14.5 | 9.7 |
| O=C1Nc2ccc(CCCl)cc2C1=Cc1ccc(Br)o1 [10726/G05] | 81.1 | 6.2 | 14.9 |
| Cc1cn(C)cc1C=C1C(=O)Nc2ccc(CCCl)cc21 [10726/G06] | 19.9 | -26.6 | 7.0 |
| O=C1Nc2ccc(CCCl)cc2C1=Cc1cc(O)c2c(c1O)CCCC2 [10726/G07] | 94.8 | -107.6 | -13.7 |
| O=C1Nc2ccc(F)cc2C1=C1C(=O)Nc2ccc(CCCl)cc21 [10726/G08] | 39.1 | 14.5 | 2.9 |
| O=C1Nc2ccccc2C1=C1C(=O)Nc2ccc(CCCl)cc21 [10726/G09] | 42.4 | 13.2 | 3.6 |
| CCc1ccc(C=C2C(=O)Nc3ccc(CCCl)cc32)s1 [10726/G10] | 26.8 | -7.0 | 10.5 |
| COc1ccc(C=C2C(=O)Nc3ccc(CCCl)cc32)cc1 [10726/G11] | 11.8 | -7.7 | 9.1 |
| CCN(CC)c1ccc(C=C2C(=O)Nc3c(Br)cc(Br)cc32)cc1 [10727/A02] | 52.0 | -10.3 | -1.3 |
| CCc1cc(CC)c(C=C2C(=O)Nc3c(Br)cc(Br)cc32)[nH]1 [10727/A03] | 40.7 | -4.5 | 6.3 |
| O=C1Nc2c(Br)cc(Br)cc2C1=Cc1cc(Cl)cc(Br)c1O [10727/A04] | 80.9 | 12.3 | -4.6 |
| O=C1Nc2c(Br)cc(Br)cc2C1=Cc1ccccc1Sc1ccc(Cl)cc1 [10727/A05] | 29.0 | 5.7 | 4.2 |
| O=C1Nc2c(Br)cc(Br)cc2C1=Cc1cc2c(cc1Cl)OCO2 [10727/A06] | 32.7 | 13.7 | -17.1 |
| O=C1Nc2c(Br)cc(Br)cc2C1=Cc1coc2ccccc2c1=O [10727/A07] | 61.1 | 12.3 | -10.7 |
| N#Cc1cccc(C=C2C(=O)Nc3c(Br)cc(Br)cc32)c1 [10727/A08] | 9.7 | 15.2 | -0.6 |
| N#Cc1ccc(C=C2C(=O)Nc3c(Br)cc(Br)cc32)cc1 [10727/A09] | 44.2 | 16.6 | -16.8 |
| O=C1Nc2c(Br)cc(Br)cc2C1=Cc1cc(O)ccc1O [10727/A10] | 95.2 | 18.1 | -6.4 |
| COc1cccc(C=C2C(=O)Nc3c(Br)cc(Br)cc32)c1OC [10727/A11] | 16.5 | 10.8 | 7.4 |
